Each structure is given as a SMILES string. Like-named read-outs stand apart in the source and are kept apart here. Where only a bound is given, the exact number is not on record here.

For assay [1], the target named is T1, Recombinant STAT3 protein (STAT3 (G127-I722)) (Homo sapiens, UniProt P40763).
T1 construct: Recombinant STAT3 protein (STAT3 (G127-I722))
As to the kind of experiment: STAT3 Fluorescence Polarization (FP) Assay. The assay is classed as binding. Particulars: probe 5-FAM-GpYLPQTV-NH2 2 nM, 45-minute incubation. The gist of the method:
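In this competition FP format, STAT3 residues G127-I722 (25 nM) and 2 nM 5-FAM-GpYLPQTV-NH2 met test compounds for 45 min at room temperature. IC50 values result from fitting mP signal against log concentration by nonlinear regression.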
A general note: In fluorescence polarisation assays a small probe gives low polarisation when free and higher when bound to something large.

Assay [2] has as its target T2, Recombinant STAT6 protein (STAT6 (W123-T658)) (Homo sapiens, UniProt P42226).
T2 construct: Recombinant STAT6 protein (STAT6 (W123-T658))
T2 sequence (P42226 123-658): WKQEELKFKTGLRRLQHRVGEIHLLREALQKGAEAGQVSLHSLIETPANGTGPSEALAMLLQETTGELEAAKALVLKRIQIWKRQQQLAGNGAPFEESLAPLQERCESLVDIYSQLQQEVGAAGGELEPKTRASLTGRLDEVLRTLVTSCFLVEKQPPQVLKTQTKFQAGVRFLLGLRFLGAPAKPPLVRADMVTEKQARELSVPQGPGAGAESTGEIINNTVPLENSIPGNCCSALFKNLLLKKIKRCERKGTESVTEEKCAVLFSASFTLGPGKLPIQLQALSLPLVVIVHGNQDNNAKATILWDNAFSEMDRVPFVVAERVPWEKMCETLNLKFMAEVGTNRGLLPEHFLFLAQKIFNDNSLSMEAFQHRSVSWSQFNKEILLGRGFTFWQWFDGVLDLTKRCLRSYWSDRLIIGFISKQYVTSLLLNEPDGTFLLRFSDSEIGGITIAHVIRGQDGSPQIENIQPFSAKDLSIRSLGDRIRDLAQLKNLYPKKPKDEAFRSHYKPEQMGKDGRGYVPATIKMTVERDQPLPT
As to the kind of experiment: STAT6 Fluorescence Polarization (FP) Assay. The format is binding. To be noted: probe 5-FAM-Ap[…]-NH2 2 nM, 45-minute incubation. The gist of the method: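 Recombinant STAT6 (W123-T658) at 250 nM mixed with 2 nM 5-FAM phosphotyrosine peptide probe in HEPES pH 7.4 buffer with DTT, 1% DMSO final, added to serially diluted compounds. FP (mP) read after 45 min at room temperature; IC50 by nonlinear regression vs log concentration.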

The mark [3] stands for this setting: STAT3 (G127-I722) 25 nM, read-out: STAT3 (FP assay IC50 class).
Where [4] appears, read: STAT6 (W123-T658) 250 nM, read-out: STAT6 (FP assay IC50 class).
The mark [5] stands for this setting: STAT3 25 nM, read-out: STAT3 (FP assay IC50).
The mark [6] stands for this setting: STAT6 250 nM, read-out: STAT6 (FP assay IC50).

T1 sequence (P40763 127-722): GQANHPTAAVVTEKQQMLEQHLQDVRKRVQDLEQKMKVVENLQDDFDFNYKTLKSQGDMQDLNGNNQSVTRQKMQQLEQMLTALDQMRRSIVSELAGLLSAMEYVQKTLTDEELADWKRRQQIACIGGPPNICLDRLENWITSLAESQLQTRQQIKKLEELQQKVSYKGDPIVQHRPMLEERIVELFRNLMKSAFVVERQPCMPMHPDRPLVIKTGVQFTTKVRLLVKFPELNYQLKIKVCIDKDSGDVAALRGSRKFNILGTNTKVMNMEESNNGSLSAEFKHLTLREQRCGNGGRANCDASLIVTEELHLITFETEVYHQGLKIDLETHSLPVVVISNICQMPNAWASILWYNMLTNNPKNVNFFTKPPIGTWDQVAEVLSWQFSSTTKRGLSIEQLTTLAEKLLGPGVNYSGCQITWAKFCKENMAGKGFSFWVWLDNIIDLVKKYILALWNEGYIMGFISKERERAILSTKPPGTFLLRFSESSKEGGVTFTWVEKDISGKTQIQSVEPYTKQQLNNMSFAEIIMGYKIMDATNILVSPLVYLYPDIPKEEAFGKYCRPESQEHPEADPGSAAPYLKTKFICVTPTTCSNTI

As for `Cc1ccncc1C1CN(C(=O)[C@@H]2CC[C@@H]3CCCC[C@H](NC(=O)c4cc5cc(CP(=O)(O)O)ccc5s4)C(=O)N32)C1` [Compound 647, ((2-(((3S,6S,10aS)-3-(3-(4-methylpyridin-3-yl)azetidine-1-carbonyl)-5-oxodecahydropyrrolo [1,2-a]azocin-6-yl)carbamoyl)benzo [b]thiophen-5-yl)methyl) phosphonic acid], the IC50 (as a rule, the concentration at which inhibition is half-maximal) in assay [1] (setting [3]) fell in the range of 0.1 to 1 µM; in assay [2] (setting [4]), 3 to 30 µM.
For `C[C@@H]1C[C@H]2CC[C@@H](C(=O)N3CC(c4cnccc4N(C)C)C3)N2C(=O)[C@@H](NC(=O)c2cc3cc([C@H](F)P(=O)(O)O)ccc3s2)C1` [Compound 735, ((R)-(2-(((3S,6S,8S,9aR)-3-(3-(4-(dimethylamino)pyridin-3-yl)azetidine-1-carbonyl)-8-methyl-5-oxooctahydro-1H-pyrrolo[1,2-a]azepin-6-yl)carbamoyl)benzo [b]thiophen-5-yl)fluoromethyl) phosphonic acid] the same measures were below 0.1 µM and 3 to 30 µM.
For `O=C(N[C@H]1CCC[C@H]2CC[C@@H](C(=O)N3CC(c4cnccc4N4C5COCC4C5)C3)N2C1=O)c1cc2cc(C(F)P(=O)(O)O)ccc2s1` (stereo partly drawn) [Compound 671, ((2-(((3S,6S,9aS)-3-(3-(4-(3-oxa-6-azabicyclo[3.1.1]heptan-6-yl)pyridin-3-yl)azetidine-1-carbonyl)-5-oxooctahydro-1H-pyrrolo[1,2-a]azepin-6-yl)carbamoyl)benzo [b]thiophen-5-yl)fluoromethyl) phosphonic acid] the same measures were below 0.1 µM and 0.3 to 3 µM.
As for `COC1(c2nncn2C)CN(C(=O)[C@@H]2CC[C@@H]3CCC[C@H](NC(=O)c4cc5cc(C(F)(F)P(=O)(O)O)ccc5s4)C(=O)N32)C1` [Compound 796, (difluoro(2-(((3S,6S,9aS)-3-(3-methoxy-3-(4-methyl-4H-1,2,4-triazol-3-yl)azetidine-1-carbonyl)-5-oxooctahydro-1H-pyrrolo[1,2-a]azepin-6-yl)carbamoyl)benzo [b]thiophen-5-yl)methyl) phosphonic acid], the results for the IC50 in assay [1] (setting [3]) and in assay [2] (setting [4]) were 0.1 to 1 µM and 3 to 30 µM, respectively.
Take `O=C(N[C@H]1CCC2(CC2)C[C@H]2CC[C@@H](C(=O)N3CC(c4cccnc4)C3)N2C1=O)c1cc2cc(C(F)(F)P(=O)(O)O)ccc2s1` [Compound 25, (difluoro(2-(((3′S,6′S,10a′R)-5′-oxo-3′-(3-(pyridin-3-yl)azetidine-1-carbonyl)octahydro-1′H-spiro [cyclopropane-1,9′-pyrrolo[1,2-a]azocin]-6′-yl)carbamoyl)benzo[b]thiophen-5-yl)methyl) phosphonic acid]: the figures for the half-maximal inhibitory concentration (IC50) in assay [1] (setting [5]) and in assay [2] (setting [6]) were below 0.1 µM and 0.3 to 3 µM, respectively.
For the compound `O=C(N[C@H]1CCCC[C@H]2CC[C@@H](C(=O)N3CCC(c4ccccn4)CC3)N2C1=O)c1cc2cc(C(F)P(=O)(O)O)ccc2s1` (stereo partly drawn) [Compound 579, (fluoro(2-(((3S,6S,10aS)-5-oxo-3-(4-(pyridin-2-yl)piperidine-1-carbonyl)decahydropyrrolo[1,2-a]azocin-6-yl)carbamoyl)benzo[b]thiophen-5-yl)methyl)phosphonic acid], the values for the IC50 in assay [1] (setting [3]) and in assay [2] (setting [4]) were 0.1 to 1 µM and 3 to 30 µM, respectively.
For `Cc1ccncc1C1CN(C(=O)[C@@H]2CC[C@@H]3CCC[C@H](NC(=O)c4cc5cc([C@H](F)P(=O)(O)O)ccc5s4)C(=O)N32)C1` (single isomer, unassigned) [Compound 636] the same measures were below 0.1 µM and 3 to 30 µM.
In the case of `O=C(N[C@H]1CCCC[C@H]2CC[C@@H](C(=O)N3CC4(CC(C5CC5)=NO4)C3)N2C1=O)c1cc2cc(C(F)(F)P(=O)(O)O)ccc2s1` [Compound 72, ((2-(((3S,6S,10aS)-3-(7-cyclopropyl-5-oxa-2,6-diazaspiro[3.4]oct-6-ene-2-carbonyl)-5-oxodecahydropyrrolo [1,2-a]azocin-6-yl)carbamoyl)benzo[b]thiophen-5-yl)difluoromethyl) phosphonic acid], the IC50 fell in the range of 0.1 to 1 µM in assay [1] (setting [5]) and 0.3 to 3 µM in assay [2] (setting [6]).
In the case of `O=C(N[C@H]1CCC[C@H]2CC[C@@H](C(=O)N[C@@H]3CC[C@@H](O)C3)N2C1=O)c1cc2cc(C(F)P(=O)(O)O)ccc2s1` (stereo partly drawn) [Compound 537, (fluoro(2-(((3S,6S,9aS)-3-(((1R,3R)-3-hydroxycyclopentyl)carbamoyl)-5-oxooctahydro-1H-pyrrolo[1,2-a]azepin-6-yl)carbamoyl)benzo[b]thiophen-5-yl)methyl)phosphonic acid], the half-maximal inhibitory concentration (IC50) was 1 to 10 µM in assay [1] (setting [3]) and 3 to 30 µM in assay [2] (setting [4]).
Consider `Cc1cccnc1C1CN(C(=O)[C@@H]2CC[C@@H]3CCC[C@H](NC(=O)c4cc5cc(CP(=O)(O)O)ccc5s4)C(=O)N32)C1` [Compound 657, ((2-(((3S,6S,9aS)-3-(3-(3-methylpyridin-2-yl)azetidine-1-carbonyl)-5-oxooctahydro-1H-pyrrolo[1,2-a]azepin-6-yl)carbamoyl)benzo [b]thiophen-5-yl)methyl) phosphonic acid], for which the figures for the IC50 in assay [1] (setting [3]) and in assay [2] (setting [4]) were 1 to 10 µM and 3 to 30 µM, respectively.
For `C[C@@]1(O)CC[C@H]2CC[C@@H](C(=O)N3CC(C(=O)N4CCOCC4)C3)N2C(=O)[C@@H](NC(=O)c2cc3cc(C(F)(F)P(=O)(O)O)ccc3s2)C1` [Compound 17, (difluoro(2-(((3S,6S,8R,10aR)-8-hydroxy-8-methyl-3-(3-(morpholine-4-carbonyl)azetidine-1-carbonyl)-5-oxodecahydropyrrolo [1,2-a]azocin-6-yl)carbamoyl)benzo[b]thiophen-5-yl)methyl) phosphonic acid], the IC50 in assay [1] (setting [5]) is below 0.1 µM; in assay [2] (setting [6]), 3 to 30 µM.
Consider `CS(=N)(=O)c1cnc(C2CN(C(=O)[C@@H]3CC[C@@H]4CCCC[C@H](NC(=O)c5cc6cc(C(F)(F)P(=O)(O)O)ccc6s5)C(=O)N43)C2)nc1` (stereo partly drawn) [Compound 719, (difluoro(2-(((3S,6S,10aS)-3-(3-(5-(S-methylsulfonimidoyl)pyrimidin-2-yl)azetidine-1-carbonyl)-5-oxodecahydropyrrolo [1,2-a]azocin-6-yl)carbamoyl)benzo [b]thiophen-5-yl)methyl) phosphonic acid], for which the IC50 in assay [1] (setting [3]) was in the range of 0.1 to 1 µM; in assay [2] (setting [4]), 3 to 30 µM.
For the compound `O=C(N[C@H]1CC[C@H]2CC[C@@H](C(=O)N3CC(c4ccccn4)C3)N2C1=O)c1cc2cc(C(F)(F)P(=O)(O)O)ccc2s1` [Compound 728, (difluoro(2-(((3S,6S,8aS)-5-oxo-3-(3-(pyridin-2-yl)azetidine-1-carbonyl)octahydroindolizin-6-yl)carbamoyl)benzo [b]thiophen-5-yl)methyl) phosphonic acid], the IC50 in assay [1] (setting [3]) lay within 0.1 to 1 µM; in assay [2] (setting [4]), 3 to 30 µM.
For `O=C(N[C@H]1CCC[C@H]2CC[C@@H](C(=O)N3CC(c4cnccc4N4C[C@@H]5C[C@H]4CO5)C3)N2C1=O)c1cc2cc(C(F)P(=O)(O)O)ccc2s1` (stereo partly drawn) [Compound 683, ((2-(((3S,6S,9aS)-3-(3-(4-((1S,4S)-2-oxa-5-azabicyclo[2.2.1]heptan-5-yl)pyridin-3-yl)azetidine-1-carbonyl)-5-oxooctahydro-1H-pyrrolo[1,2-a]azepin-6-yl)carbamoyl)benzo [b]thiophen-5-yl)fluoromethyl) phosphonic acid] the same measures were below 0.1 µM and 3 to 30 µM.

Values taken from patent publication US20250215029A1 (Recludix Pharma, Inc., priority 2022, published 2025).
